Reference: PMC4129416, “YLT192, a Novel, Orally Active Bioavailable Inhibitor of VEGFR2 Signaling with Potent Antiangiogenic Activity and Antitumor Efficacy in Preclinical Models” (Scientific Reports, 2014)

Legend:
[1] = system: HCT116; assay: Inhibition of tumor cell growth; assay type: cell-based; conditions: HCT-116; HCT116, human colorectal carcinoma; 48 hour treatment; means ± SD, n=3
Source text: (§1) Data are means ± SD, n=3.
cell line cell type IC50(μM)

[2] = Acute toxicity test; assay type: in vivo; conditions: rats
Method: All the HCT116 model mice were sacrificed after 24 days of treatment.
Acute toxicity test was done to investigate the safety profiles of YLT192 on rats. Briefly, 7–8 week old female and male rats (n = 10, respectively) were orally administrated with YLT192 at 3000 mg/kg. Then clinical symptoms of the rats including mortality, body weight and gross findings were observed once daily for 14 days. On day 14, the rats were sacrificed and examined by necropsy.

[3] = system: SPC-A1; assay: Inhibition of tumor cell growth; assay type: cell-based; conditions: SPCA1; SPC-A1, human lung cancer; 48 hour treatment; means ± SD, n=3
Source text: as §1
(§2) cell line cell type IC50(μM) […]

[4] = system: MDA-MB-231; assay: Inhibition of tumor cell growth; assay type: cell-based; conditions: MDA-MB-231, human mammary carcinoma; 48 hour treatment; means ± SD, n=3
Source text: as §1, §2

[5] = system: LS147T; assay: Inhibition of tumor cell growth; assay type: cell-based; conditions: human colorectal carcinoma, 48 hour treatment, means ± SD, n=3
Source text: as §1, §2

[6] = system: SKOV-3; assay: Inhibition of tumor cell growth; assay type: cell-based; conditions: SK-OV-3; SKOV-3, human ovarian carcinoma; 48 hour treatment; means ± SD, n=3
Source text: as §1, §2

[7] = system: HCT116 cells; assay: Western blot of oncogenic signaling pathways; assay type: cell-based, human; conditions: 48 h
Method: (§3) Figure 4 Inhibitory effects of YLT192 on tumor cells. (A) YLT192 inhibited U251 and HCT116 cells proliferation. The EdU incorporation assay was conducted on U251 and HCT116 cells after treated with YLT192 for 24 hours. The EdU-positive (red fluorescent staining) cells and Hoechst staining (blue fluorescent staining) cells represented proliferating and total cells in the fluorescent images, respectively (100×). Quantification was shown on the right panels. (B) YLT192 induced apoptosis of HCT116 cells. HCT116 cells were treated with YLT192 or vehicle for 48 hours followed by flow cytometric analysis of annexin V-FITC and PI staining. […] Typical apoptosis-related proteins caspase 3 and Bax were detected by western blot. […] U251 and HCT116 cells were treated with YLT192 or vehicle for 48 hours and the expression of protein in different signaling pathways were detected by western blot with specific antibodies. […]
(§4) To gain further insight into the molecular mechanism of the inhibitory effects of YLT192 on tumor cells we evaluated the expression of p44/42 MAPK, STAT3, AKT, and mammalian target of rapamycin (mTOR) in U251 and HCT116 cells 48 h after treatment.
(§5) Supplementary Figure S8. […] U251 and HCT116 cells were treated with YLT192 or vehicle for 48 hours and the expression of protein in different signaling pathways were detected by western blot with specific antibodies. […]

[8] = system: U251 cells; assay: Western blot of oncogenic signaling pathways; assay type: cell-based, human; conditions: 48 h
Method: as §3, §4, §5

[9] = system: U251 tumors; assay: Subcutaneous xenograft model; assay type: in vivo; conditions: 100 mg/kg oral once daily; U251 xenograft in nude mice; vs vehicle
Method: (§6) Figure 5 Anti-tumor activities of YLT192 in vivo. (A) U251 and HCT116 tumor-bearing mice were treated orally with YLT192 at 25, 50 and 100 mg/kg or vehicle daily, respectively. […] (B) Body weight changes in YLT192 and vehicle treated mice. […] For A and B, data are means ± SD. (C) and (D), YLT192 inhibited tumor cell proliferation in HCT116 tumor tissues in vivo. Mice bearing HCT116 tumor xenograft were treated with YLT192 at 50 and 100 mg/kg or vehicle and sacrificed at the end of the experiment. The tumor tissues were removed for further immunohistochemistry analysis using anti-Ki67 (C) and anti-p-p44/42 MAPK antibodies (D). (E) YLT192 induced tumor cell apoptosis in HCT116 tumor in vivo. Apoptosis was measured by TUNEL staining (n = 6 mice per group). Scale bars represent 100 μm.
(§7) All animal experiments were approved and conducted by the Institutional Animal Care and Treatment Committee of Sichuan University in China (Permit Number: 20121205). […] Tumor growth and body weight was measured every three days during the treatment. Tumor volumes were calculated using the formula as follow: volume (mm^3) = 0.5 × length (mm) × width (mm)^2. Growth inhibition was calculated from the start of treatment by comparison of the mean change in tumor volume for vehicle and treated group as before.

[10] = system: HCT116 tumors; assay: Subcutaneous xenograft model; assay type: in vivo; conditions: 100 mg/kg oral once daily; HCT116 xenograft in nude mice; vs vehicle
Method: as §6, §7

CNC(=O)c1cc(Oc2ccc(NC(=O)c3cccc(OC)c3)cc2)ccn1 [YLT192]
IC50 [1]: 7.4 ± 0.5 µM | NOAEL at 14 days ([2]; both sexes, rat, in vivo, single oral 3000 mg/kg, 14 days observation, read-out: No Observed Adverse Effect Level (NOAEL)): > 3000 mg/kg | mortality, clinical signs, and body weight ([2]; oral 3000 mg/kg, 14 days): no obvious changes were observed | IC50 [3]: 16.4 ± 1.4 µM | IC50 [4]: 11.9 ± 2.1 µM | IC50 [5]: 9 ± 1.1 µM | IC50 [6]: 8.2 ± 1.5 µM | expression of phosphorylated p44/42 MAPK, STAT3, AKT, and mTOR [7]: dramatically decreased | expression of phosphorylated p44/42 MAPK, STAT3, AKT, and mTOR [8]: dramatically decreased | tumor volume inhibition [9]: 60% | tumor volume inhibition [10]: 61%
